Here are results for 3 compounds from US8063062B2, “Compounds with a combination of cannabinoid-CB1 antagonism and acetylcholinesterase inhibition” (Solvay Pharmaceuticals B.V., priority 2006, dated 2011).

Read-outs that look alike come from different tables or passages of the source.

In experiment [1] the target is T1, acetylcholinesterase (Homo sapiens, UniProt P22303). Briefly: biochemical.
Experiment [2] deals with human cannabinoid CB1 receptor (Homo sapiens, UniProt P21554). Briefly: biochemical.
human cannabinoid CB1 receptor, sequence (P21554 whole entry): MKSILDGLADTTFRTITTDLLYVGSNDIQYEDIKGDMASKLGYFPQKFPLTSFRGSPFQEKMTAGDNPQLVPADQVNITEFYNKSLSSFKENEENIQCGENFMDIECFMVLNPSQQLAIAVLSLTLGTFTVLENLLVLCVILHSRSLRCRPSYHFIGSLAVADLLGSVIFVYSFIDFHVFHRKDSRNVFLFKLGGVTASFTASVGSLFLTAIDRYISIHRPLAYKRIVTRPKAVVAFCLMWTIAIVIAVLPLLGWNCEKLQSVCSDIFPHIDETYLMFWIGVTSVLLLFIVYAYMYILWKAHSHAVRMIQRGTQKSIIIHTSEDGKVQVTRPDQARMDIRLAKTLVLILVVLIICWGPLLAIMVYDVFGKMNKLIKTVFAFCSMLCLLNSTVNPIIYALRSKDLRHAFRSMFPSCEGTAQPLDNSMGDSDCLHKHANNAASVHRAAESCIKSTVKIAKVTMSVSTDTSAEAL
Protocol: After incubation of a freshly prepared cell membrane preparation with the [^3H]-ligand, with or without addition of compounds of the invention, separation of bound and free ligand was performed by filtration over glass fiber filters. Radioactivity on the filter was measured by liquid scintillation counting.
Experiment [3] addresses T1, acetylcholinesterase.

T1 sequence (P22303 32-614): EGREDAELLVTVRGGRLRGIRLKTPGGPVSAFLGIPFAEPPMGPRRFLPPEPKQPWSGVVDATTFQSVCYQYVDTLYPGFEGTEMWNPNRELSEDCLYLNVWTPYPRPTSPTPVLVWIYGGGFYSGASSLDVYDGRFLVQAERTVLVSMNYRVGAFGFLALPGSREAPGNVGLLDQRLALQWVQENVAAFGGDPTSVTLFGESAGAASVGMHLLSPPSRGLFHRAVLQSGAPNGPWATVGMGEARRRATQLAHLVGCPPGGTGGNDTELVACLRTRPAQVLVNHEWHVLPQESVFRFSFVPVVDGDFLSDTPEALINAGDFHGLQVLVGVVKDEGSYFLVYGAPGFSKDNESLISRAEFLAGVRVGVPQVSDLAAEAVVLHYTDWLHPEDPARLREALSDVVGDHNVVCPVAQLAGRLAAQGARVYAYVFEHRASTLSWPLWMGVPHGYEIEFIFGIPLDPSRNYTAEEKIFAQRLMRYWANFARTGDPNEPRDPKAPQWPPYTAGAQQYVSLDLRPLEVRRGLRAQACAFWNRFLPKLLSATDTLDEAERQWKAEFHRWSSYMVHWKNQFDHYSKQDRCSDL

`CN=C(NS(=O)(=O)c1ccc(Cl)cc1)N1C[C@H](c2ccccc2)C(c2ccc(Cl)cc2)=N1` [SLV319]: the IC50 against acetylcholinesterase [1] is 6.31 µM.

In experiment [2], `O=S(=O)(/N=C(/NCCCCNc1c2c(nc3ccccc13)CCCC2)N1CC(c2ccccc2)C(c2ccc(Cl)cc2)=N1)c1ccc(Cl)cc1` (stereo not shown) [compound 2, 4-chloro-N-{[3-(4-chlorophenyl)-4-phenyl-4,5-dihydro-1H-pyrazolyl]-[7-(1,2,3,4-tetrahydroacridin-9-yl-amino)butylamino]methylene}benzene sulfonamide] gave a Ki of 0.0398 µM. This compound also had an IC50 on acetylcholinesterase [3] of 2.51 µM.

In turn, `Cc1c(C(=O)NN2CCCCC2)nn(-c2ccc(Cl)cc2Cl)c1-c1ccc(Cl)cc1` [rimonabant] showed an IC50 against acetylcholinesterase [3] of 25.1 µM.
